Source: publication PMC9963398, “Discovery of New Quinolone-Based Diarylamides as Potent B-RAF^V600E/C-RAF Kinase Inhibitors Endowed with Promising In Vitro Anticancer Activity” (International Journal of Molecular Sciences, 2023)

How the values were obtained:
Type in all cases: cell-based
786-0 = assay: NCI-60 five-dose SRB assay; details: Homo sapiens; 786-0, Renal cancer, five-dose test
Outline: (§1)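 Following the NCI standard screening protocol, the full panel of 60 human cancer cell lines was assessed by sulforhodamine B assay at the Institute.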

A498 = assay: NCI-60 five-dose SRB assay; details: Homo sapiens; A498, Renal cancer, five-dose test
Outline: as §1

CCRF-CEM = assay: NCI-60 five-dose SRB assay; details: Homo sapiens, Leukemia, five-dose test
Outline: as §1

COLO 205 = assay: NCI-60 five-dose SRB assay; details: Homo sapiens; COLO 205, Colon cancer, five-dose test
Outline: as §1

EKVX = assay: NCI-60 five-dose SRB assay; details: Homo sapiens, NSCL cancer, five-dose test
Outline: as §1

HCC-2998 = assay: NCI-60 five-dose SRB assay; details: Homo sapiens; HCC-2998, Colon cancer, five-dose test
Outline: as §1

NCI-H23 = assay: NCI-60 five-dose SRB assay; details: Homo sapiens; NCI-H23, NSCL cancer, five-dose test
Outline: as §1

NCI-H460 = assay: NCI-60 five-dose SRB assay; details: Homo sapiens; NCI-H460, NSCL cancer, five-dose test
Outline: as §1

NCI/ADR-RES = assay: NCI-60 five-dose SRB assay; details: Homo sapiens, Ovarian cancer, five-dose test
Outline: as §1

OVCAR-3 = assay: NCI-60 five-dose SRB assay; details: Homo sapiens; OVCAR-3, Ovarian cancer, five-dose test
Outline: as §1

OVCAR-4 = assay: NCI-60 five-dose SRB assay; details: Homo sapiens; OVCAR-4, Ovarian cancer, five-dose test
Outline: as §1

OVCAR-5 = assay: NCI-60 five-dose SRB assay; details: Homo sapiens; OVCAR-5, Ovarian cancer, five-dose test
Outline: as §1

OVCAR-8 = assay: NCI-60 five-dose SRB assay; details: Homo sapiens; OVCAR-8, Ovarian cancer, five-dose test
Outline: as §1

RXF 393 = assay: NCI-60 five-dose SRB assay; details: Homo sapiens; RXF 393, Renal cancer, five-dose test
Outline: as §1

SK-MEL-28 = assay: NCI-60 five-dose SRB assay; details: Homo sapiens; SK-MEL-28, Melanoma, five-dose test
Outline: as §1

SK-OV-3 = assay: NCI-60 five-dose SRB assay; details: Homo sapiens; SK-OV-3, Ovarian cancer, five-dose test
Outline: as §1

SN12C = assay: NCI-60 five-dose SRB assay; details: Homo sapiens, Renal cancer, five-dose test
Outline: as §1

SNB-75 = assay: NCI-60 five-dose SRB assay; details: Homo sapiens; SNB-75, CNS cancer, five-dose test
Outline: as §1

U251 = assay: NCI-60 five-dose SRB assay; details: Homo sapiens, U-251; U251, CNS cancer, five-dose test
Outline: as §1

UACC-257 = assay: NCI-60 five-dose SRB assay; details: Homo sapiens; UACC-257, Melanoma, five-dose test
Outline: as §1

[1] = test system: NCI-60 human tumor cell lines; assay: NCI-60 five-dose testing, ranges over panel or subpanel; details: Homo sapiens, range over lines
Procedure: The anticancer screening of target compounds over a full panel of 60 human cancer cell lines was carried out using Sulforhodamine B (SRB) assay at the National Cancer Institute (NCI), Bethesda, Maryland, USA, employing the standard protocol.

SMILES: COc1cccc2nc(Nc3cccc(NC(=O)c4ccc(CN5CCN(C)CC5)c(C(F)(F)F)c4)c3)ccc12 [Compound 14a, 4-((4-methylpiperazin-1-yl)methyl)-N-(3-((5-methoxyquinolin-2-yl)amino)phenyl)-3-(trifluoromethyl)benzamide]
- GI50 (786-0): 1760 nM
- GI50 (A498): 2000 nM
- GI50 (CCRF-CEM): 2100 nM
- GI50 (COLO 205): 1790 nM
- GI50 (EKVX): 2100 nM
- GI50 (HCC-2998): 1990 nM
- GI50 (NCI-H23): 1910 nM
- GI50 (NCI-H460): 1710 nM
- GI50 (NCI/ADR-RES): 2280 nM
- GI50 (OVCAR-3): 2150 nM
- GI50 (OVCAR-4): 2210 nM
- GI50 (OVCAR-5): 1840 nM
- GI50 (OVCAR-8): 3090 nM
- GI50 (RXF 393): 1730 nM
- GI50 (SK-MEL-28): 1710 nM
- GI50 (SK-OV-3): 9220 nM
- GI50 (SN12C): 1710 nM
- GI50 (SNB-75): 1600 nM
- GI50 (U251): 1920 nM
- GI50 (UACC-257): 1980 nM

SMILES: COc1cccc2nc(Nc3cccc(NC(=O)c4ccc(CN5CCCN(C)CC5)c(C(F)(F)F)c4)c3)ccc12 [Compound 14b, N-(3-((5-methoxyquinolin-2-yl)amino)phenyl)-4-((4-methyl-1,4-diazepan-1-yl)methyl)-3-(trifluoromethyl)benzamide]
- GI50 (786-0): 1720 nM
- GI50 (A498): 13500 nM
- GI50 (CCRF-CEM): 1620 nM
- GI50 (COLO 205): 1810 nM
- GI50 (EKVX): 1720 nM
- GI50 (HCC-2998): 1710 nM
- GI50 (NCI-H23): 1680 nM
- GI50 (NCI-H460): 1760 nM
- GI50 (NCI/ADR-RES): 1720 nM
- GI50 (OVCAR-3): 2140 nM
- GI50 (OVCAR-4): 2670 nM
- GI50 (OVCAR-5): 1710 nM
- GI50 (OVCAR-8): 2030 nM
- GI50 (RXF 393): 1660 nM
- GI50 (SK-MEL-28): 1680 nM
- GI50 (SK-OV-3): 4330 nM
- GI50 (SN12C): 1630 nM
- GI50 (SNB-75): 1520 nM
- GI50 (U251): 1760 nM
- GI50 (UACC-257): 1860 nM

SMILES: CCN1CCN(Cc2ccc(C(=O)Nc3cccc(Nc4ccc5c(OC)cccc5n4)c3)cc2C(F)(F)F)CC1 [Compound 14c, 4-((4-ethylpiperazin-1-yl)methyl)-N-(3-((5-methoxyquinolin-2-yl)amino)phenyl)-3-(trifluoromethyl)benzamide]
- GI50 (786-0): 1410 nM
- GI50 (A498): 11800 nM
- GI50 (CCRF-CEM): 1970 nM
- GI50 (COLO 205): 1740 nM
- GI50 (EKVX): 4060 nM
- GI50 (HCC-2998): 1590 nM
- GI50 (NCI-H23): 2370 nM
- GI50 (NCI-H460): 1470 nM
- GI50 (NCI/ADR-RES): 2280 nM
- GI50 (OVCAR-3): 1800 nM
- GI50 (OVCAR-4): 2890 nM
- GI50 (OVCAR-5): 3280 nM
- GI50 (OVCAR-8): 6780 nM
- GI50 (RXF 393): 1630 nM
- GI50 (SK-MEL-28): 1560 nM
- GI50 (SK-OV-3): 12600 nM
- GI50 (SN12C): 3620 nM
- GI50 (SNB-75): 1200 nM
- GI50 (U251): 1690 nM
- GI50 (UACC-257): 1510 nM

SMILES: COc1cccc2nc(Nc3ccc(F)c(NC(=O)c4ccc(CN5CCN(C)CC5)c(C(F)(F)F)c4)c3)ccc12 [Compound 15a, N-(2-fluoro-5-((5-methoxyquinolin-2-yl)amino)phenyl)-4-((4-methylpiperazin-1-yl)methyl)-3-(trifluoromethyl)benzamide]
- GI50 (786-0): 12500 nM
- GI50 (A498): 16900 nM
- GI50 (CCRF-CEM): 9710 nM
- GI50 (COLO 205): 17200 nM
- GI50 (EKVX): 14700 nM
- GI50 (HCC-2998): 18800 nM
- GI50 (NCI-H23): 15500 nM
- GI50 (NCI-H460): 15900 nM
- GI50 (OVCAR-3): 14400 nM
- GI50 (OVCAR-4): 13900 nM
- GI50 (OVCAR-5): 16100 nM
- GI50 (OVCAR-8): 15800 nM
- GI50 (RXF 393): 3710 nM
- GI50 (SK-MEL-28): 15300 nM
- GI50 (SK-OV-3): 15700 nM
- GI50 (SN12C): 13400 nM
- GI50 (SNB-75): 9090 nM
- GI50 (U251): 13400 nM
- GI50 (UACC-257): 16300 nM
- GI50 ([1]; all cancer cell lines): 3610 to 18800 nM
- GI50 ([1]; melanoma cell lines): 11700 to 16300 nM
